{"source": "patent US20170095494A1", "about": "“Process for the Extraction of Strawberry P-Coumaroyl Hexose and/or Polyphenols, Extract and Uses Thereof” (Nutra Canada Inc., priority 2014, published 2017)", "origin": "cited, not measured here", "system": "AMPK", "conditions": "Bhattacharya et al, 2013, Yoon et al"}
{"compound": "O=C(O)/C=C/c1ccc(O)cc1", "note": "[p-coumaric acid]", "values": [{"measurement": "impact on AMPK and glucose uptake in muscle cells", "result": "increased glucose uptake"}]}
